Assay results taken from patent US20240124408A1 (Sanofi, priority 2020, published 2024).
Where two headings read alike, the source gives them in different places.

Experiments:
human TRPM8 [1] = target: T1, human TRPM8 (Homo sapiens, UniProt Q7Z2W7); test: In vitro human TRPM8 fluorescence calcium flux assay (recombinant CHO cells, Fluo4-AM, FDSS6000); assay type: cell-based; conditions: recombinant CHO cells expressing human TRPM8; menthol-related EC50, normalized to 100 μM menthol
T1 construct: expressed in transfected cells; host or cells: CHO (p658 mammalian expression vector)
T1 sequence (Q7Z2W7 whole entry): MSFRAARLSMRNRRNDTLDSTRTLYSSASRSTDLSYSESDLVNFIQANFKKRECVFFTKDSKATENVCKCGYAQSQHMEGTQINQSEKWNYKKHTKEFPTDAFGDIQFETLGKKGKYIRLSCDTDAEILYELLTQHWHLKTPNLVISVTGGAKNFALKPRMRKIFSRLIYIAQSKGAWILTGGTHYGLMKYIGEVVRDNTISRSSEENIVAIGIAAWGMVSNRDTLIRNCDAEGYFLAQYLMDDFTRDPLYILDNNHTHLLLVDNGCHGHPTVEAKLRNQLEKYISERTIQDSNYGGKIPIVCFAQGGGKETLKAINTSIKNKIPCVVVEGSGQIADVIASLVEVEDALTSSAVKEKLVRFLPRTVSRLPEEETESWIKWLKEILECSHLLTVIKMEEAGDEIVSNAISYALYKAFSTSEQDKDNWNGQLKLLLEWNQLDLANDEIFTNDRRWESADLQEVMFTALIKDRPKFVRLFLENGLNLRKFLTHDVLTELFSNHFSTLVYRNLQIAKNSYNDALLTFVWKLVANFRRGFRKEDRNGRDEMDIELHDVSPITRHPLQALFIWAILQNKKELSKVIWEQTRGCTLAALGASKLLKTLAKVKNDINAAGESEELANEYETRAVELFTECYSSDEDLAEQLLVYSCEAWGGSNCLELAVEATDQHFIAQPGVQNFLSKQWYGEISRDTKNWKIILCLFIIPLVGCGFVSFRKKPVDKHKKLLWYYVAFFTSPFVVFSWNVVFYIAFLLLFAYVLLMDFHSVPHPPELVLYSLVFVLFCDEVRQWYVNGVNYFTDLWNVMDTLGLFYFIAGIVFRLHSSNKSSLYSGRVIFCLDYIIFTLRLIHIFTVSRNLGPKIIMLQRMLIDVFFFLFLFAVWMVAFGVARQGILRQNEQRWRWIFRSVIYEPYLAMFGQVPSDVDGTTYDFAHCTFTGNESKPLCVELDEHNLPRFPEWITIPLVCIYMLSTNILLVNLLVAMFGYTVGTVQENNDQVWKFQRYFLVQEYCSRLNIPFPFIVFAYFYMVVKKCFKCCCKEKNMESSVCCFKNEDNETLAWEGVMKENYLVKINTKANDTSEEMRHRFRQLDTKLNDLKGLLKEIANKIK
Summary of the method: (§1)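 Agonist EC50 values come from sixteen-point dose responses normalized to the 100 μM menthol maximum, fitted sigmoidally. Calcium rise was followed for 3 min post-addition in recombinant CHO lines (human or pig TRPM8). Cells were dye-loaded with 2 μM Fluo4-AM, 1 h at room temperature, probenecid-containing HBSS.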

[2] = test system: Male castrated German Landrace pigs; test: In vivo assay: enhancement of swallowing in anesthetized pigs (manometry with pressure probe in the mouth); conditions: Sus scrofa, anesthetized pig, dose per pig 10 mg, injected in 1 ml vehicle into the oral cavity
Procedure: For testing the efficacy of TRPM8 agonists for enhancing swallowing, experiment using the pig model can be conducted according to assay described below. The efficacy can be compared to a vehicle control.
Male castrated German Landrace pigs (weight range of 20 to 35 kg) were used. Anesthesia was induced by injecting 20 ml of a urethane solution (20 g/100 mL dissolved in saline) into an ear vein corresponding to a dose of around […]. Anesthesia was maintained by continuous infusion of 15-20 mL per hour of the urethane solution, which was infused into an epigastric vein, and additionally by infusion of Zoletil and Rompun (500 mg Zoletil is disssovled in 10 ml of Rompun 2%, then diluted 1:10 with saline and 3-5 mL per hour of this diluted solution. Bupivacain 0.5% JENAPHARM@ was injected for additional infiltration anesthesia. Anesthesia was monitored via pulsoximetry (ear) and regular reflex testing for pain. Body temperature was monitored and maintained by an infrared lamp.
Preparation of pigs: Swallowing responses were assessed by manometry with a pressure probe placed into the mouth of the pig. The pressure probe consisted of a plastic tube (diameter 3.3 mm) to which a small balloon was attached. The tube was advanced about 12-14 cm into the mouth related to the snout. The balloon was then inflated with air to yield a pressure of 20-30mbar (vehicle). Ideally a swallowing response with 1 ml of fluid raised this pressure by 20-50mbar which was then referred to as the swallowing pressure (the increment of this pre-set pressure in the inflated balloon after swallowing) to be further enhanced by an effective test drug.
The free end of the tube was connected to a differential pressure transducer MPX Type 399/2 (Hugo Sachs Elektronik-Harvard Apparatus) and a Hugo Sachs Plugsys-amplifier system. The biological signals were recorded by a Hugo Sachs Plugsys-amplifier system and continuously stored on a computer hard disk by an on line data acquisition and analysis system (Hem 4.2 Notocord Systems, Croissy-sur-Seine, France).
A second tube referred to as injection tube was placed dorsally to the manometer tube to enable the administration of the vehicle that induced the baseline swallowing activity, or of this same vehicle containing the test compound.
Induction and assessment of swallowing activity: 0.5h after anesthesia induction 1 ml of a fluid or the vehicle for the test drug was injected into the injection tube placed into the oral cavity. The number of swallows was counted and the highest-pressure increment was registered. Challenges with vehicle were repeated at intervals of 30 min until two consecutive vehicle challenges show an about equal swallowing response. The next challenge was the vehicle loaded with the test drug (otherwise same procedure). The efficacy of a compound to enhance swallowing as shown in Table 7 was expressed as the % increase in pressure and frequency of swallowing after administration of the compound compared to the pressure and frequency recorded for its vehicle administered just before.

pig TRPM8 [3] = target: T2, pig TRPM8 (Sus scrofa, UniProt F1SM15); test: In vitro pig TRPM8 fluorescence calcium flux assay (recombinant CHO cells, Fluo4-AM, FDSS6000); assay type: cell-based; conditions: recombinant CHO cells expressing pig TRPM8; menthol-related EC50, normalized to 100 μM menthol
T2 construct: expressed in transfected cells; host or cells: CHO (pcDNA5/FRT/TO vector; hygromycin B and blasticidin selection)
T2 sequence (F1SM15 1-1104): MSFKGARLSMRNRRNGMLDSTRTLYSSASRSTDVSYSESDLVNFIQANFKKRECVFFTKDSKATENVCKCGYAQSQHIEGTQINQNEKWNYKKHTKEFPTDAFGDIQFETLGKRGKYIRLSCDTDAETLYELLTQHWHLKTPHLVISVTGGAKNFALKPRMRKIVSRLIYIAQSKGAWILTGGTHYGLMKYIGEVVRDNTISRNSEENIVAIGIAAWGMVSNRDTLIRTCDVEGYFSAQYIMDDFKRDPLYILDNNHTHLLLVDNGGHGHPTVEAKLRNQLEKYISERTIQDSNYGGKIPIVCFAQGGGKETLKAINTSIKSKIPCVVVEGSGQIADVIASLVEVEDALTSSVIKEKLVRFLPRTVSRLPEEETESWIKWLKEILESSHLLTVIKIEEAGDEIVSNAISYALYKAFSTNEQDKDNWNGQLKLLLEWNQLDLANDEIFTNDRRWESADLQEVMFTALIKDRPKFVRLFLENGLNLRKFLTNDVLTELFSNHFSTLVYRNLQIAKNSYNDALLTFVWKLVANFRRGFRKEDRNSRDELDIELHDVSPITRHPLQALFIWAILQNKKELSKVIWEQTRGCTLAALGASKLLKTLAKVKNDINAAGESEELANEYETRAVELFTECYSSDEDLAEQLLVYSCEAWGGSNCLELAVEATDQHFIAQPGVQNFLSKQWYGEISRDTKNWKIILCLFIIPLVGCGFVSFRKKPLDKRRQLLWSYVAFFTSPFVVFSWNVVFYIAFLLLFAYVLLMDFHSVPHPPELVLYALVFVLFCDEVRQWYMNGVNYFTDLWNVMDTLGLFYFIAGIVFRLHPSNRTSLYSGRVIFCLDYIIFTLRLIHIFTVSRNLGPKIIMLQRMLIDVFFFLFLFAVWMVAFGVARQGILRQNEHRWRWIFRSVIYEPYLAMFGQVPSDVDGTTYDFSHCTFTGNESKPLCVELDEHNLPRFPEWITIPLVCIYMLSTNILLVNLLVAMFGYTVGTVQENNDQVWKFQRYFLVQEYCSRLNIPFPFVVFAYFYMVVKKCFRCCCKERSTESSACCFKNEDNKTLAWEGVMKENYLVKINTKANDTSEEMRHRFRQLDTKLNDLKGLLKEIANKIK
Summary of the method: as §1

human TRPM8 [4] = target: T1, human TRPM8; test: In vitro human TRPM8 automated patch-clamp assay (SyncroPatch 384PE, CHO cells); assay type: cell-based; conditions: CHO cells expressing human TRPM8, 28° C.
Summary of the method: (§2)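 Whole-cell automated patch clamp on engineered CHO lines at 28 °C, held at −60 mV, with −80 to +80 mV ramps every 5 s; one compound concentration per well. Peak current minus pre-addition baseline was normalised to no-compound control and Emax, and EC50 was fitted; 200 μM menthol wells served as control.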

pig TRPM8 [5] = target: T2, pig TRPM8; test: In vitro pig TRPM8 automated patch-clamp assay (SyncroPatch 384PE, CHO cells); assay type: cell-based; conditions: CHO cells expressing pig TRPM8, 28° C.
Summary of the method: as §2

With `CC(C)[C@@H]1CC[C@@H](C)C[C@@]1(O)C(=O)NCCc1ccccc1OCC(N)=O` [Example 81, (1S,2S,5R)—N-(2-(2-amino-2-oxoethoxy)phenethyl)-1-hydroxy-2-isopropyl-5-methyl cyclohexane-1-carboxamide] the EC50 (human TRPM8 [1]) was 27.7 nM, the change in vivo at 10 mg ([2]; frequency of swallowing compared with vehicle administered just before, read-out: % increase frequence vs vehicle) was 247% and the change in vivo at 10 mg ([2]; swallowing pressure compared with vehicle administered just before, read-out: % increase pressure vs vehicle) was 315%. The EC50 (pig TRPM8 [3]) was 25.2 nM, the EC50 (human TRPM8 [4]) was 1500 nM and the EC50 (pig TRPM8 [5]) was 4250 nM.
